Series [1] relates to taurine transport into the brain. The note with it: sulfate; cited from earlier work.
The subject of series [2] is adult mice exposed to anoxia. The series is described as follows: survival of adult mice exposed to anoxia. It counts as in vivo, Adult Swiss mice. The note with it: for protection against anoxia / survival (in words): sulfate. Set-up: mortality, 2.5 minutes of anoxia / protection against 2.5 minutes anoxia: concentration or dose not given beside the values. The method, then: Adult Swiss mice (BK-1 males, 20 g) purchased from Bantin & Kingman, Fremont, Calif. were used. Each batch consisted of 10 mice. Within each batch five mice were selected randomly as experimental animals and the remaining five as controls. Experimental mice received daily intraperitoneal injections of 0.25 ml of GES (50 mg/ml) for 14 days.
At day 14, all mice within the same batch (5 experimental and 5 each of the […]) were placed in a specially designed chamber (26.5×24.5×21.0 cm). Anoxia/hypoxia was produced by infusion of pure nitrogen gas ([…]) into the chamber for 2.5 or 2.75 minutes. Anoxia/hypoxia was reversed immediately after these intervals by removing the chamber and placing the mice in a room air environment.
The results are shown in FIG. 1 and discussed in detail above.

Series [3] in a line: observation of behavior and respiratory pattern. It counts as in vivo, Adult Swiss mice. The note with it: two weeks i.p. From the text:
(§1) Adult Swiss mice (BK-1 male 20 g) purchased from Bantin & Kingman, Fremont, Calif., were used. Each batch consisted of 15 mice. Within each batch, five mice were selected randomly to be in the GES, taurine, or control group. A taurine group was included to serve as additional control.

Details of series [4]: species or system Adult Swiss mice. The following applies: mouse, in vivo. How it is done: as §1
Arterial blood gas sample was collected by puncture of the lower portion of the descending aorta under pentobarbital anesthesia. Analysis was performed on a Corning 168 Blood Gas Analyzer.

The test system of a further series is mouse brain. The series is described as follows: mouse brain intracellular pH pre- and post-anoxia (Example 7, 31P NMR). The following applies: FIG. 12, sulfate. It counts as in vivo, Adult Swiss mice. The method, then: as §1
A GE Omega CSI-7T (clear bore 120 mm, horizontal, 7T) was used. Mice were anesthetized with pentobarbital, 50 mg/kg, intraperitoneally. Mice were held in a padded holder which was placed in the probe chamber containing a one turn round surface coil (5 mm diameter) tunable to the resonance frequency of proton and ^31 P. To avoid signal contamination, the scalp and temporal muscle were retracted. The animal body temperature was kept at 37° C. using a non-magnetic heating pad. Field homogeneity was maximized by skimming on tissue water proton signals. ^31 P spectra were obtained using a one pulse sequence at 121.67 MHz with a spectral width of 10K and stored into 4K memory blocks (recycle time 1.2 sec). Every 100 transients (2 minutes) were blocked. In order to obtain higher accuracy, preanoxia steady state pH was determined using block average files of three blocks (300 transients, 6 minutes). Anoxia was then introduced by infusion of 100% N2 into the chamber (14 L/min). The first blocks (100 transients, 2 minutes) immediately after N2 introduction were utilized for post anoxia pH measurement. […]

In a further series the test system is anaerobic glycolysis. Nature of the series: brain lactate after 2.5 min anoxia. It counts as in vivo, Adult Swiss mice. The method, then: as §1
Brain lactate levels were determined for mice exposed to 2.5 minutes of anoxia as follows. Animals were exposed to 2.5 minutes of anoxia under pentobarbital anesthesia. Immediately after the exposure, animals were immersed into a liquid nitrogen. The frozen brains were removed by chiseling and extracted as described above. Lactate concentration was determined using the lactate dehydrogenase reaction.

For series [5] the following is noted: in vivo, sulfate, cited from earlier work.
For the next series, the system named is CA1 neurons. The series is described as follows: neuronal density in CA1 region, gerbil forebrain ischemia model. It counts as in vivo. The method, then:
The gerbil forebrain ischemia model of Kirino (REFERENCE, please) was employed as follows.
Animals were divided into 4 groups. Two groups of 5 animals each served as control.
First control group was administered daily for fourteen days 0.25 ml of saline. No ischemia was induced.
Second control group was administered 0.25 ml of 625 mg/kg of GES daily for fourteen days. No ischemia was induced.
Third group of ten animals was control ischemia group. This group was administered with 0.25 ml of saline daily for 14 days. Then, the ischemia was induced.
Fourth group of 16 animals was administered 0.25 ml of 625 mg/kg of GES for 14 days, followed by induced ischemia.
Animals were anesthetized with 1% halothane, 70% nitrous oxide, and 29% oxygen. The subscalp and rectal temperature were monitored and kept constant at 37° C. using a controlled heating system starting 30 minutes prior to one hour after induction of ischemia. Ischemia in experimental groups (saline and GES ischemia groups) was induced by occlusion of the carotid arteries bilaterally for 5 minutes using small aneurysm clips. Animals in the two control groups (saline and GES controls) received sham surgery but no ischemia was induced.
Seven days after induced ischemia and recirculation, animals were perfused transcardially with 50 cc of normal saline followed by 500 cc of 5% paraformaldehyde in 0.1M phosphate buffer (pH=7.3), at 100 cm H2 O, under deep pentobarbital anesthesia. Brains were removed and fixed in the same buffered paraformaldehyde solution for 14 days. Sections (6 μm thick) containing the dorsal hippocampus at the level 1.4-1.7 mm posterior to the bregma were prepared on a cryostat from paraffin embedded brain. Sections were stained with hematoxylin and eosin and examined in a double blinded fashion. The number of viable neurons within the CA1 region was counted using an Olympus BH-2 microscope at ×400. The results represents the average of the counts.

Structures are written as SMILES. Entries after “also recorded” stand apart in the source; their conditions may differ. Structures can show the parent of a compound that is named as a salt. Where two headings read alike, the source gives them in different places.

With `N=C(N)NCCS(=O)(=O)O` [GES, guanidinoethane sulfate], the “effect on taurine transport into the brain (in words)” value in series [1] is “competitive inhibitor of taurine transport into the brain; also recorded: effectively competes with and inhibits taurine transport into the brain”. In series [2] (14 days i.p. pretreatment), the “mortality, 2.5 minutes of anoxia” value is “zero” and the “mortality, 2.75 minutes of anoxia” value worked out at 20%. In addition, the “protection against 2.5 minutes anoxia” value in series [2] (FIG. 1) stood at 100%. Further, the “protection against anoxia / survival (in words)” value in series [2] (listed as sodium guanidinoethane sulfate) is “effectively prevent lactic acidosis caused by complete oxygen deficiency”. Further, the “protection against anoxia / survival (in words)” value in series [2] is reported as “more effective than pretreatment with taurine or saline; also recorded: enhance the survival rate of mice exposed to anoxia; also recorded: significantly enhances the survival rate of adult mice exposed to anoxia”. Besides, the “observable adverse effects in behavior or respiratory pattern” value in series [3] was “did not show any observable adverse effects”. Besides, in series [4], the “arterial blood gas parameters including pH (in words)” value is “remained essentially unchanged”, the “arterial pCO2” value was found to be 41.0 ± 5.49 mmHg, the “arterial pH” value turned out to be 7.29 ± 0.03 and the “arterial pO2” value amounted to 98.0 ± 5.8 mmHg. The “brain intracellular pH, pre-anoxia (in words)” value in the series with mouse brain (625 mg/kg i.p., two weeks, 625 mg/kg) is “detectable shift in intracellular pH, to a more alkaline level; also recorded: clear alkali shift; also recorded: significantly increased brain intracellular pH (alkaline shift)”. In the series on mouse brain, the “brain intracellular pH, post-anoxia (in words)” value is reported as “alkali shift is maintained following 12 minutes of post anoxia; also recorded: remained higher, retaining the degree of alkaline shift”. In addition, the Lactate with anaerobic glycolysis (Table 4, n = 5, post 2.5 min anoxia) worked out at 0.50 ± 0.07 mM. For the same compound, the “lactate levels post 2.5 min anoxia (in words)” value in the series on anaerobic glycolysis (among three groups) is “essentially identical among the three groups”. The “blood-brain barrier crossing (in words)” value in series [5] (listed as Guanidinoethanesulfonic acid) was “ability to cross the blood-brain barrier”. Further, the “blood-brain barrier crossing (in words)” value in series [5] is “crosses the blood brain barrier in the uncharged form”. The “neuroprotection of CA1 neurons (in words)” value in the series on CA1 neurons (7 days after 5 min bilateral carotid occlusion, sulfate) is “significant nueroprotection on CA1 neurons; also recorded: Significantly higher neuronal density”. Also, the neuronal density in CA1 region, no ischemia in the series on CA1 neurons (GES control group (n=5), sham surgery) is 249 ± 9.4 /mm. The “CA1 neuronal density, ischemia” value in the series on CA1 neurons (GES ischemia group) is 61.1±55.11 /mm. For the same compound, the neuronal density in CA1 region, ischemia in the series on CA1 neurons (GES ischemia group (n=16), 5 min occlusion, 7 days, p<0.05) was 61.1 ± 55.1 /mm. In the series with CA1 neurons (in vivo), the “protective activity by CA1 neuronal density vs saline ischemia” value is given as “four times higher”.
